Source: patent US20130280388A1, “Solid Food Products and Methods of Their Preservation” (priority 2012, published 2013)

What was measured:
[1] = tested on: Salmonellae; experiment: Salmonellae log reduction in pot pie filling by 4-HBITC only (frozen filling thawed to room temperature, plate count); type: cell-based
From the text: (§1) Pot pie fillings made up of both Salmonellae inoculated particulates and gravy carrying the 4-hydroxybenzyl isothiocyanate (4-HBITC) in white mustard essential oil (WMEO), is used to evaluate the effect of 4-HBITC in a heterogeneous food system. Standing overnight cultures of five strains of Salmonellae are used to inoculate, at two different levels, mixtures of frozen vegetable and chicken particulates containing about 62% chicken, 17% carrot, 15% potato and 2% peas, as described in Example 2, all by weight of the total particulate mixture. The high level contains about 6 log colony forming units (cfu)/gm while the medium level contains about 3 log cfu/gm of Salmonellae. Bags containing the inoculated cultures and the particulates are gently inverted and rolled to ensure uniform coating of the particulates and the inoculated particles are then stored at −28° C. for 24 hours before being mixed with sauce containing white mustard essential oil (WMEO).
(§2) Sauce as made in Example 2 is used as the vehicle for WMEO. From a 2.4% 4-HBITC in WMEO stock solution in peanut oil made as described in Example 1, accurate amounts are weighed out such that 400 g of the pie filling comprising 36% of the particulates and 64% of the gravy will have 750, 562.5 or 250 ppm, 4-HBITC when mixed together. The particulates and the sauce are first put together in a sterile bowl and the WMEO in peanut oil added to the mixture and mixed gently for about 1 minute. The control (0 ppm 4-HBITC samples have only the vegetable oil added to them before mixing. The completed pie fillings are then immediately frozen at −28° C. for 48 hours before the second stage of the experiment.
(§3) To enumerate the accurate Salmonellae count prior to freezing, a sample is removed from each of the mixed pie fillings, including the control, and diluted at a ratio of 1:10 with Butterfields buffer and homogenized using a stomacher. The homogenized and diluted sample is suitably diluted further to obtain the appropriate number of bacterial colonies per plate and plated in triplicate on trypticase soy agar with yeast extract and allowed to stabilize for 30-60 minutes. The plates are then over-laid with xyline-lysine-deoxycholate (XLD) agar to resuscitate and recover injured cells and incubated at 35° C. for 48 hours before counting the colonies.
(§4) In the second stage of the experiment, the frozen pie fillings are cooked in 700 W or 1100 W microwave ovens. During cooking, samples are removed from the pie fillings at 15, 45, 60, 90 120, 180 and 240 seconds. At each of these time points, the surviving microbial counts are enumerated by removing discrete 25 g samples and plating them in the manner described above. To determine the effect of 4-HBITC only, each of the treatments and the control is thawed to room temperature and triplicate samples are used to enumerate the surviving microorganisms as detailed above.
(§5) The microbial reductions resulting from the treatments is attributed to the simultaneous action of microwave heating and 4-HBITC while microbial reductions occurring in the 0 ppm 4-HBITC containing control sample is attributed to microwave heating only. If the reduction in microbial counts due to the simultaneous action of 4-HBITC and microwave heating is greater than the sum of the individual reductions in microbial counts due to 4-HBITC and microwave heating, a synergistic effect is considered to be present (YES). If the reduction in microbial counts due to the simultaneous action of 4-HBITC and microwave heating is equal to or less than the sum of the individual reductions in microbial counts due to 4-HBITC and due to microwave heating, a synergistic effect is considered to be absent (NO).

[2] = tested on: Salmonellae; experiment: Salmonellae log reduction in frozen pot pie filling containing 4-HBITC cooked in a microwave oven (plate count); type: cell-based; parameters: key to Synergistic effect Yes/No: Yes: reduction in microbial counts due to the simultaneous action of 4-HBITC and microwave heating is greater than the sum of the individual reductions in microbial counts due to 4-HBITC and microwave heating, a synergistic effect is considered to be present (YES); No: reduction in microbial counts due to the simultaneous action of 4-HBITC and microwave heating is equal to or less than the sum of the individual reductions in microbial counts due to 4-HBITC and due to microwave heating, a synergistic effect is considered to be absent (NO); conditions: for Synergistic effect Yes/No: 180 sec
From the text: as §1, §2, §3, §4, §5

[3] = 250 ppm 4-HBITC, inoc. level H, MW power 700 Watts
[4] = 250 ppm 4-HBITC, inoc. level H, MW power 1100 Watts
[5] = 250 ppm 4-HBITC, inoc. level M, MW power 700 Watts
[6] = 250 ppm 4-HBITC, inoc. level M, MW power 1100 Watts
[7] = 562.5 ppm 4-HBITC, inoc. level H, MW power 700 Watts
[8] = 562.5 ppm 4-HBITC, inoc. level H, MW power 1100 Watts
[9] = 562.5 ppm 4-HBITC, inoc. level M, MW power 700 Watts
[10] = 562.5 ppm 4-HBITC, inoc. level M, MW power 1100 Watts
[11] = 750 ppm 4-HBITC, inoc. level H, MW power 700 Watts
[12] = 750 ppm 4-HBITC, inoc. level H, MW power 1100 Watts
[13] = 750 ppm 4-HBITC, inoc. level M, MW power 700 Watts
[14] = 750 ppm 4-HBITC, inoc. level M, MW power 1100 Watts

Compound: Oc1ccc(CN=C=S)cc1 [4-HBITC, 4-hydroxybenzyl isothiocyanate]
- log reductions (180 sec) due to 4-HBITC only [1, 3]: 0.74 log
- log reductions (180 sec) due to 4-HBITC only [1, 4]: 1.05 log
- log reductions (180 sec) due to 4-HBITC only [1, 5]: 1.15 log
- log reductions (180 sec) due to 4-HBITC only [1, 6]: 1.1 log
- log reductions (180 sec) due to 4-HBITC only [1, 7]: 1.59 log
- log reductions (180 sec) due to 4-HBITC only [1, 8]: 1.59 log
- log reductions (180 sec) due to 4-HBITC only [1, 9]: 2.4 log
- log reductions (180 sec) due to 4-HBITC only [1, 10]: 2.4 log
- log reductions (180 sec) due to 4-HBITC only [1, 11]: 2.03 log
- log reductions (180 sec) due to 4-HBITC only [1, 12]: 2.14 log
- log reductions (180 sec) due to 4-HBITC only [1, 13]: 2.4 log
- log reductions (180 sec) due to 4-HBITC only [1, 14]: 2.64 log
- log reductions (180 sec) due to Simultaneous action of 4-HBITC & heat [2, 3]: 1.11 log
- Synergistic effect Yes/No [2, 3]: No
- log reductions (180 sec) due to Simultaneous action of 4-HBITC & heat [2, 4]: 1.63 log
- Synergistic effect Yes/No [2, 4]: Yes
- log reductions (180 sec) due to Simultaneous action of 4-HBITC & heat [2, 5]: 1.42 log
- Synergistic effect Yes/No [2, 5]: No
- log reductions (180 sec) due to Simultaneous action of 4-HBITC & heat [2, 6]: 1.38 log
- Synergistic effect Yes/No [2, 6]: No
- log reductions (180 sec) due to Simultaneous action of 4-HBITC & heat [2, 7]: 2.97 log
- Synergistic effect Yes/No [2, 7]: Yes
- log reductions (180 sec) due to Simultaneous action of 4-HBITC & heat [2, 8]: 5.25 log
- Synergistic effect Yes/No [2, 8]: Yes
- log reductions (180 sec) due to Simultaneous action of 4-HBITC & heat [2, 9]: 4.38 log
- Synergistic effect Yes/No [2, 9]: Yes
- log reductions (180 sec) due to Simultaneous action of 4-HBITC & heat [2, 10]: 4.38 log
- Synergistic effect Yes/No [2, 10]: Yes
- log reductions (180 sec) due to Simultaneous action of 4-HBITC & heat [2, 11]: 5.25 log
- Synergistic effect Yes/No [2, 11]: Yes
- log reductions (180 sec) due to Simultaneous action of 4-HBITC & heat [2, 12]: 1.56 log
- Synergistic effect Yes/No [2, 12]: No
- log reductions (180 sec) due to Simultaneous action of 4-HBITC & heat [2, 13]: 4.38 log
- Synergistic effect Yes/No [2, 13]: Yes
- log reductions (180 sec) due to Simultaneous action of 4-HBITC & heat [2, 14]: 4.38 log
- Synergistic effect Yes/No [2, 14]: Yes
